Assays:
anti-c-myc antibody 9E10 = settings: read-out: Affinity for anti-c-myc antibody 9E10; cited from earlier work
α-thrombin = α-thrombin (Homo sapiens, UniProt P00734); assay: Amidolytic assay of CaM-DTI and CaM-DTI2 (S-2238 or S-2366); assay type: biochemical; set-up: with a certain fixed concentration of α-thrombin (˜0.3 nM); settings: Ca2+ up to 5 mM
Experimental: Kinetics of thrombin-catalyzed hydrolysis of the chromogenic substrates S-2238 or S-2366 (Chromogenix) was followed by absorbance at 405 nm on a SpectraMax plate reader thermostated at 37° C. The concentration of the substrate was 400 μM. Inhibition assays were performed in the clotting buffer with a certain fixed concentration of α-thrombin (˜0.3 nM) such that linear progress curves were observed within at least 15 min in the absence of the inhibition. The total volume of the reaction mixture was 200 μl. […] Kinetics data from initial rate experiments were used to construct Lineweaver-Burke plot; i.e. the relationship of (substrate concentration)^−1 versus (initial velocity)^−1 which were analysed by linear regression with MicroCal Origin 6.0 program (MicroCal, Md.). The Ki values of the inhibitors were determined using the equation Ki=[I]/{(SLo/SL1)−1}, where [I] is the inhibitor concentration, SLo is the slope of the reaction in the absence of inhibitors, and SL1 is the slope of the reaction in the presence of the inhibitor.
Kinetics of thrombin-catalyzed hydrolysis of the chromogenic substrate S-2366 (Chromogenix) was followed by absorbance at 405 nm on a SpectraMax plate reader at 25° C. The concentration of the substrate S-2366 was 50 μM. Inhibition assays were performed in the clotting buffer with a certain fixed concentration of α-thrombin (˜0.6 nM). […]

Effect of Ca2+ on inhibition of the thrombin active site (α-thrombin)	Substance	Kd (anti-c-myc antibody 9E10) [nM]
–	EQKLISEEDL [c-myc sequence]	~500
not affected	Ile-Arg-Phe-Thr-Asp-Gly-Glu-Gly-(CamCKK)-Asp-Phe-Glu-Glu-Ile-Pro-Glu-Glu-Tyr-Leu-Gln [CaM-DTI2]	–

Source: patent US8063018B2, “Bivalent thrombin binding molecules comprising linkers” (National Research Council of Canada, priority 2004, dated 2011)
